Measurements as given in patent publication US9617263B2, “Phenyl-triazolo-pyridine compounds” (Eli Lilly and Company, priority 2014, dated 2017).

Columns and labels:
[1] = molecular target: T1, human GPR40 (hGPR40) (Homo sapiens, UniProt O14842); test: Radioligand competition binding with [3H]TAK-875, HEK293 membranes; settings: 5 nM [3H]TAK-875; Cheng-Prusoff; Mean±SEM
T1 construct: expressed in transfected cells; host or cells: HEK293 (membranes)
Text: Competition curves are plotted as the percent specific inhibition versus concentration of compound and analyzed using a four parameter nonlinear regression fit with variable slope. […] See Cheng, Y. and Prusoff, W. H. (1973) “Relationship between the inhibition constant (Ki) and the concentration of inhibitor which causes 50 percent inhibition (IC50) of an enzymatic reaction,” Biochem Pharmacol 22(23):3099-3108. (Mean±SEM; SEM=standard error of the mean.).

[2] = molecular target: hGPR40 (Homo sapiens, UniProt O14842); test: Human beta-arrestin agonist assay with 1% FBS (PathHunter, hEK293-hFFAR1); type: cell-based; parameters: host or cells: HEK293 (hEK293-hFFAR1 PathHunter cells)
Text: Human embryonic kidney (hEK293)-hFFAR1 cells are purchased from DiscoveRx. Human osteosarcoma (U2OS) cells expressing mFFAR1 are developed by DiscoveRX. These cells co-express the Prolink (PK)-tagged GPR40 and the Enzyme Acceptor (EA)-tagged beta-arrestin fusion proteins. If activation of the GPR40 stimulates beta-arrestin recruitment, it would force complementation of the beta galactosidase (B-gal) enzyme fragments, forming a B-gal enzyme that generates a chemiluminescent signal using the DiscoveRx PathHunter detection kit. Cells are incubated overnight at 5,000 cells/well in 384 well plates in culture media containing 1% FBS (fetal bovine serum). Serial diluted compounds in DMSO (2× dilutions to generate 20 concentrations) are step down diluted in culture media containing 1% FBS (fetal bovine serum) and added to cells with a final top concentration starting of 100 μM. After addition of compounds, cells are incubated for 90 min at 37° C. in 5% CO2 incubator, and DiscoveRX kit detection reagents are added. Measurement of the chemiluminescent signal is ascertained with the Envision reader, after a 1-hour incubation at room temperature. Data are fit to a 4 parameter-fit logistics to determine EC50 values; % activity is measured versus maximum response to TAK875 at 1 μM.

[3] = molecular target: T2, PPARα (Homo sapiens, UniProt Q07869); test: Gal4 PPARα reporter (CTF) functional assay in CV1 cells; type: cell-based; settings: versus 10 μM PPAR agonist reference compound
T2 construct: expressed in transfected cells; host or cells: CV1 (African green monkey kidney)
T2 sequence (Q07869 239-466 limits assumed): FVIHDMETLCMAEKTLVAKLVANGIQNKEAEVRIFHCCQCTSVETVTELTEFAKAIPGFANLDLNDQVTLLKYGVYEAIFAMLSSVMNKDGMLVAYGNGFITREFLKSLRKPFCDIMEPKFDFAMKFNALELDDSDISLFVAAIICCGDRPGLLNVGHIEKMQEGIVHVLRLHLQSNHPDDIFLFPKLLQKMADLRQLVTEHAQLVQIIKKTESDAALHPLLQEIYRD
Method: Because GPR40 is known to be activated by ligands to PPARγ, exemplified compounds are examined in Gal4 PPARα, Gal4 PPARδ, and PPARγ reporter assays to determine the selectivity of exemplified compounds for PPAR receptors. CV1 cells, which are derived from the renal tissue of an African green monkey, are transfected with various receptor and reporter plasmids using Fugene. […] After 24 hours incubation with compounds, cells are lysed and luciferase activity is determined as a measure of receptor activation by luminescence. […] The maximum percent stimulation is determined versus maximum stimulation obtained with 10 μM of an appropriate PPAR agonist reference compound, 2-methyl-2-(4-{2-methyl-3-[2-(phenylcarbonyl)-4-(trifluoromethoxy)phenoxy]propoxy}phenoxy)propanoic acid. […] Efficacy was negative for PPARα, PPARδ, and PPARγ is detected with the compound of Example 1 when examined up to […] in the specific PPAR co-transfection (CTF) functional assays described above. […]

Chain of hGPR40 (O14842 whole entry, the tested form may be a part): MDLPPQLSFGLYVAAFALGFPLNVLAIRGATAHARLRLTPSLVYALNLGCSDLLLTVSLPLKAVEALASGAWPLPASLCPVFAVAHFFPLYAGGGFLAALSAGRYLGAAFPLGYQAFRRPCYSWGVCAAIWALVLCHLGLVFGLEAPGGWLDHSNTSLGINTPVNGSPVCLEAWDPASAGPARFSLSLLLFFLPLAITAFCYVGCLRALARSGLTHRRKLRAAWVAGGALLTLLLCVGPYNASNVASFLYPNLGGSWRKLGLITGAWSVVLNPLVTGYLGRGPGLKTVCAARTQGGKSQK
Chain of hGPR40 (P32121 whole entry partner, the tested form may be a part): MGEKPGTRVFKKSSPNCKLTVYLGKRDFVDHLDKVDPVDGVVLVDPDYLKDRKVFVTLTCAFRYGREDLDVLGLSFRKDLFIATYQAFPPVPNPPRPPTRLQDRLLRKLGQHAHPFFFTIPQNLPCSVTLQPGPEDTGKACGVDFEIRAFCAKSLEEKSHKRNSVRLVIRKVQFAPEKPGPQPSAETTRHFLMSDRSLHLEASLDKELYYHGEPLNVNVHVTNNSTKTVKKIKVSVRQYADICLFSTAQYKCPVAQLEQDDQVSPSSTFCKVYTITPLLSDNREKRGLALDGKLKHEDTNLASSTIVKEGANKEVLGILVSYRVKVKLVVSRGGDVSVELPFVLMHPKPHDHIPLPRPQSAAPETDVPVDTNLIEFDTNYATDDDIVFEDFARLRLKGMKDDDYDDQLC
T1 sequence (O14842 whole entry): as the sequence (O14842 whole entry, the tested form may be a part) above

Ki [1]: 24.6 nM | EC50 ([2]; 1% FBS, 90 min, read-out: hGPR40 b-arrestin EC50): 47.4 nM | hGPR40 b-arrestin % stimulation max (FA) ([2]; versus maximum response to TAK875 at 1 μM): 163%
SMILES: CC#C[C@@H](CC(=O)O)c1ccc(OCc2cc(-c3ccccc3C)cn3ncnc23)cc1 [Example 1, (S)-3-[4-(6-o-Tolyl-[1,2,4]triazolo[1,5-a]pyridin-8-ylmethoxy)-phenyl]-hex-4-ynoic acid]
Efficacy for PPARα [3]: negative (Efficacy of <20% is considered negative)
